{"source": "paper PMC1847690", "about": "(PLoS Pathogens, 2007)", "key": {"[1]": {"biological_target": "PknA kinase domain (PknA1–337) (Mycobacterium tuberculosis, UniProt P9WI83)", "sequence (P9WI83 1-337)": "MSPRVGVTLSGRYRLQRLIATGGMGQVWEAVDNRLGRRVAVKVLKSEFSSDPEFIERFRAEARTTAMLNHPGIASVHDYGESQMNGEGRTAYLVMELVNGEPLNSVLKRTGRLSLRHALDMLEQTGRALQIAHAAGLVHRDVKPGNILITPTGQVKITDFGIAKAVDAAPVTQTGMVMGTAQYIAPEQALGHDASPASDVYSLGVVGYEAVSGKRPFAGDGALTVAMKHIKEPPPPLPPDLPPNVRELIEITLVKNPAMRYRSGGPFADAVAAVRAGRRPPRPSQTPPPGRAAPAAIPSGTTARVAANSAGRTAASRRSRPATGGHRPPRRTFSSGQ"}, "[2]": {"biological_target": "PknB kinase domain (PknB1–308) (Mycobacterium tuberculosis, UniProt P9WI81)", "sequence (P9WI81 1-308)": "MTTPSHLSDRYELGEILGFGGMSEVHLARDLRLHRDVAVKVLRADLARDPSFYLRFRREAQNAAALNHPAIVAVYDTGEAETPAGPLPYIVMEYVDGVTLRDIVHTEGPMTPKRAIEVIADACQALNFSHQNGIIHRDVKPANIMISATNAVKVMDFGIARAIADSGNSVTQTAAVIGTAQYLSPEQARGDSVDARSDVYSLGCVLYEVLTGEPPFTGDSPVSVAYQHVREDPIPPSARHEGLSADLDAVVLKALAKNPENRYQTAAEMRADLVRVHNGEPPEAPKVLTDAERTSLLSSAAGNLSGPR"}, "[3]": {"biological_target": "PknK kinase domain (PknK1–289) (Mycobacterium tuberculosis, UniProt P9WI65)", "sequence (P9WI65 1-289)": "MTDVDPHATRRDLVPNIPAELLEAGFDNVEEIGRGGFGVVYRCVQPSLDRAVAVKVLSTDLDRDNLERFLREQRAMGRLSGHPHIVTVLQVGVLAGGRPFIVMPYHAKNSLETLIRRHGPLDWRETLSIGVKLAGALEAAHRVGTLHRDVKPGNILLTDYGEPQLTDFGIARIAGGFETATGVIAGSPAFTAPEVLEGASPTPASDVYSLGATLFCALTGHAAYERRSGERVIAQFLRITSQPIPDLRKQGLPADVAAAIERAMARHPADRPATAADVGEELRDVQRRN"}, "UsfX (Rv3287c)": {"biological_target": "T1, UsfX (Rv3287c) (Mycobacterium tuberculosis, UniProt P9WGX7)", "T1 construct": "gene rsbW", "T1 sequence (P9WGX7 whole entry)": "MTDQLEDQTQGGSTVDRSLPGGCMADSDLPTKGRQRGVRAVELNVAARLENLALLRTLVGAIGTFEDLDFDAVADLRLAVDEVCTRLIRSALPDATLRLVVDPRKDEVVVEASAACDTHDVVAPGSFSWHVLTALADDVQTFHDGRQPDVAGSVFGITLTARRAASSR"}, "[4]": {"biological_target": "PknE kinase domain (PknE1–286) (Mycobacterium tuberculosis, UniProt P9WI77)", "sequence (P9WI77 1-286)": "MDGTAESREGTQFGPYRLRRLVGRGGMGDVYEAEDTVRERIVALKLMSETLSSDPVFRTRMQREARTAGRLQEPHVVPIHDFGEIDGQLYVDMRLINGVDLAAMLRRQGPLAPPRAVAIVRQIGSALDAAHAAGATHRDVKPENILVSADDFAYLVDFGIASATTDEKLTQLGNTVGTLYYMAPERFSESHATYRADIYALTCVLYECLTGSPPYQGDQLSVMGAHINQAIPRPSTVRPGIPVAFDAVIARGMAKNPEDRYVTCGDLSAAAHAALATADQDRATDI"}, "[5]": {"biological_target": "PknD kinase domain (PknD1–378) (Mycobacterium tuberculosis, UniProt P9WI79)", "sequence (P9WI79 1-378)": "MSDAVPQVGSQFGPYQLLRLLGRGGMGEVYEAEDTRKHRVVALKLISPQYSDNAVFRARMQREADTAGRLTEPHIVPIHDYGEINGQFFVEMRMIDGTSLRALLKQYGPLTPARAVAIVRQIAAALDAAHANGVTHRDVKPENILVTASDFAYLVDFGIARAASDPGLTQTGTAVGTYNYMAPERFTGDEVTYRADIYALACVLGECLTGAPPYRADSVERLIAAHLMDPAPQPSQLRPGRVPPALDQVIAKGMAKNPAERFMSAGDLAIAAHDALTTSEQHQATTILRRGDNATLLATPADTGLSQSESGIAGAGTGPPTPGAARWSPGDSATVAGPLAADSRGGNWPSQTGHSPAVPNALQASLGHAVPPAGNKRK"}}}
{"smiles": "Nc1ncnc2c1ncn2[C@@H]1O[C@H](COP(=O)(O)OP(=O)(O)OP(=O)(O)O)[C@@H](O)[C@H]1O", "note": "[ATP]", "values": [{"measurement": "[γ-32P]ATP transfer to MyBP and the MBP tag, autoradiography", "setting": "[1]", "value": "The MBP tag was phosphorylated by the PknA, PknB, and PknE kinase domains"}, {"measurement": "[γ-32P]ATP transfer to Rv0516c and RshA, autoradiography", "setting": "[2]", "value": "PknB and PknE also phosphorylated the anti–sigma factor RshA (Rv3221A)"}, {"measurement": "[γ-32P]ATP transfer to MyBP, autoradiography", "setting": "[3]", "value": "At concentrations of each kinase domain equally active in phosphorylating the nonspecific substrate, MyBP"}, {"measurement": "phosphorylation of MyBP, autoradiography", "setting": "UsfX (Rv3287c)", "value": "we incubated these proteins under conditions in which UsfX phosphorylated the model substrate"}, {"measurement": "[γ-32P]ATP transfer to Rv0516c, RshA, Rv1904 and RsfA, autoradiography", "setting": "[4]", "value": "PknE weakly phosphorylated Rv1904 and RsfA (Rv1365c)"}]}
{"smiles": "O=C1c2ccccc2-c2n[nH]c3cccc1c23", "note": "[SP600125]", "values": [{"measurement": "dose-dependent inhibition", "setting": "[5]", "value": "The SP600125 inhibitor blocked this Rv0516c phosphorylation (Figure 3B) in a dose-dependent manner"}]}
